Results taken from US20190037899A1, “Intramolecular Trans-Sialidase” (THE INSTITUTE OF FOOD RESEARCH, priority 2016, published 2019).

Assays:
[1] = tested on: R. gnavus strains (ATCC 29149 and ATCC 35913); test: Growth of R. gnavus strains on 2,7-anhydro-Neu5Ac as sole carbon source; format: cell-based, Ruminococcus gnavus; details: anaerobic
Experimental: The ability of pathogens to utilise 2,7-anhydroSA as a potential nutrient by growing the cells in presence of 2,7-anhydroSA (or sialic acid as a control) as sole carbon source under anaerobic conditions is tested. […] The ability of these pathogens to utilise 2,7-anhydro-Neu5Ac is tested by growing the cells in vitro with 2,7-anhydro-Neu5Ac synthesised using the enzymatic synthesis as described above, as sole carbon source. Growth is determined spectrophotometrically and analysed using an appropriately developed DMFit program to compare the effect of the carbon source on growth rates. The impact of ITS on the ability of pathogens to grow on mucins purified from human “goblet-like” cells is tested in co-culture experiments with R. gnavus strains (ATCC 29149 expressing ITS and E1 as a negative control) in anaerobic continuous reactors.

[2] = target: T1, sialic acid aldolase (Escherichia coli, UniProt P0A6L4); test: Degradation of 2,7-anhydro-Neu5Ac by sialic acid aldolase; format: biochemical
T1 construct: purchased Carbosynth Limited (Compton, UK)
Experimental: A dialysis membrane (7K MWCO) containing fetuin (0.3 mM) was incubated in 100 mM ammonium formate buffer pH 6.5 for 2 h at 37° C. under gentle shaking (115 rpm). Following the addition of 50 nM RgNanH (in Tris buffer 40 mM pH 7.9) into the dialysis membrane, the reaction mixture was further incubated in 100 mM ammonium formate buffer (pH 6.5) at 115 rpm, 37° C. for 24 h. Sialic acid aldolase (17.4 units in 100 mM ammonium formate) was added to the membrane enclosed reaction mixture. Following a further 20 h incubation at 115 rpm and 37° C., 100 mL of buffer was recovered, diluted with 100 mL of ultrapure water and freeze dried. The membrane enclosed reaction mixture was dialysed with 100 mL ultrapure water for 2 h and again overnight under 115 rpm shaking and at 37° C. The water was recovered, mixed with the dried synthesis buffer and freeze dried. After complete dryness, the powder was dissolved in 100 mL ultrapure water and freeze dried again 3 times to remove volatile salts.
Considering the difficulty and the low efficiency of the separation of free Neu5Ac from 2,7-anhydro-Neu5Ac, a commercially available sialic acid aldolase from E. coli was introduced into the dialysis membrane with RgNanH and fetuin. […]

[3] = Spontaneous conversion of 2,7-anhydro-Neu5Ac to Neu5Ac (1H NMR, HPAEC-PAD); format: physicochemical; details: up to 24 h at 37° C.

T1 sequence (P0A6L4 whole entry): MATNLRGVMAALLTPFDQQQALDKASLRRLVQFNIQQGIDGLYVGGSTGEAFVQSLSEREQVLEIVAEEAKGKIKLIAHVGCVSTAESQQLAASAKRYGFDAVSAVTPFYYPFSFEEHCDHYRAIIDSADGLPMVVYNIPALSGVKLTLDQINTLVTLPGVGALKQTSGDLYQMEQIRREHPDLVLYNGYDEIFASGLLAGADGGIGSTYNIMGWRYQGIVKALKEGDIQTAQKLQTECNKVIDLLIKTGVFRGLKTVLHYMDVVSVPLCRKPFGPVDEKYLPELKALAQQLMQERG

Question: With `CC(=O)N[C@H]1[C@H]2O[C@@](C(=O)O)(C[C@@H]1O)O[C@@H]2[C@H](O)CO` [2,7-anhydro-Neu5Ac, 2,7-anhydro-α-N-acetylneuraminic acid] as the molecule, how does the “Growth of R. gnavus strains on the compound as sole carbon source” value [1] read?
Answer: able to grow

Question: What about the “Degradation by sialic acid aldolase” value [2] of the same molecule?
Answer: resistant to degradation

Question: And the “Spontaneous conversion of 2,7-anhydro-Neu5Ac to Neu5Ac” value [3]?
Answer: no spontaneous conversion
